The values below are quoted from earlier work in US12220423B2, “Compounds, derivatives, and analogs for cancer” (HYGIA PHARMACEUTICALS, LLC, priority 2018, dated 2025).

This data set deals with KRAS. To be noted: K-562 cells treated with 750 micromolars of IP6 for 60 min; p<0.05.

As to `O=P(O)(O)O[C@H]1[C@H](OP(=O)(O)O)[C@@H](OP(=O)(O)O)[C@H](OP(=O)(O)O)[C@@H](OP(=O)(O)O)[C@H]1OP(=O)(O)O` [myo inositol hexaphosphate], the “down regulation of KRAS and other relevant genes” value is “down regulates KRAS and other relevant genes significantly”.
